Test [1] deals with T1, human GPR119 (Homo sapiens, UniProt Q8TDV5).
T1 sequence (Q8TDV5 1-335): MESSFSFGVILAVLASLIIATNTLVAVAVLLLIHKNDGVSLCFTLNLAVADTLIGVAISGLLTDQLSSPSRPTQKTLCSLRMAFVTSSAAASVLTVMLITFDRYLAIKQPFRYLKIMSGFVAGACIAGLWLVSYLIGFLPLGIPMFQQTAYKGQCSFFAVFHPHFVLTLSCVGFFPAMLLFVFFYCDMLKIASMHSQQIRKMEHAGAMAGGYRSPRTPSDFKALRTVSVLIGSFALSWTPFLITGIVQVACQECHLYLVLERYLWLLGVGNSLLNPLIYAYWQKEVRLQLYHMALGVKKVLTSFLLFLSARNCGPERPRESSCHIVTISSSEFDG
Description: β-Arrestin PathHunter assay (U2OS hGPR119 β-arrestin cells). The test is classed as cell-based. Particulars: for Emax: U2OS, read-out: Intrinsic Activity (Human B-arrestin). How it is done: GPR119 agonist activity was also determined with a cell-based assay utilizing DiscoverX PathHunter β-arrestin cell assay technology and their U2OS hGPR119 β-arrestin cell line (DiscoverX Cat # 93-0356C3). In this assay, agonist activation is determined by measuring agonist-induced interaction of β-arrestin with activated GPR119. A small, 42 amino acid enzyme fragment, called ProLink was appended to the C-terminus of GPR119. Arrestin was fused to the larger enzyme fragment, termed EA (Enzyme Acceptor). Activation of GPR119 stimulates binding of arrestin and forces the complementation of the two enzyme fragments, resulting in formation of a functional β-galactosidase enzyme capable of hydrolyzing substrate and generating a chemiluminescent signal.
Specifically, U2OS hGPR119 β-arrestin cells (DiscoverX 1×10^7/mL) are removed from cryopreservation and diluted in growth medium (Minimum essential medium (MEM; Gibco Cat # 11095-080), 10% heat inactivated fetal bovine serum (HIFBS; Sigma Cat # F4135-100), […] sodium pyruvate (Sigma Cat # S8636), 500 microg/mL G418 (Sigma Cat # G8168) and 250 microg/mL Hygromycin B (Invitrogen Cat # 10687-010). The cell concentration was adjusted to 1.66×10^5 cells/mL and 30 mLs of this suspension was added to a T-175 flask and incubated at 37 degrees Celsius in a humidified environment in 5% carbon dioxide. After 24 hours, the cells were removed from the T-175 flask with enzyme-free cell dissociation buffer (Gibco cat #13151-014), centrifuged at 800×g and then re-suspended in plating medium (Opti-MEM I (Invitrogen/BRL Cat # 31985-070) and 2% charcoal dextran treated fetal bovine serum (CD serum; HyClone Cat # SH30068.03).
The cell concentration was adjusted to 2.5×10^5 cells/mL with plating medium and 20 microliters of this cell suspension (5000 cells) was added to each well of a white Greiner 384-well low volume assay plate (VWR cat #82051-458) and the plates were incubated at 37 degrees Celsius in a humidified environment in 5% carbon dioxide.
After 16 hours (overnight) the assay plates were removed from the incubator and varying concentrations of each compound to be tested (diluted in assay buffer (1×HBSS+CaCl2+MgCl2 (Gibco Cat # 14025-092), 20 mM HEPES pH 7.0 (Gibco Cat # 15630-080) and 0.1% BSA (Sigma Cat # A9576)) were added to the assay plate wells in a volume of 5 microliters (final DMSO concentration was 0.5%). After a 90 minute incubation at 37 degrees Celsius in a humidified environment in 5% carbon dioxide, 12 microliters of Galacton Star β-galactosidase substrate (PathHunter Detection Kit (DiscoveRx Cat # 93-0001); prepared as described in the manufacturers assay protocol) was added to each well of the assay plate. The plates were incubated at room temperature and after 60 minutes, changes in the luminescence were read with an Envision 2104 multilabel plate reader at 0.1 seconds per well. EC50 determinations were made from an agonist-response curves analyzed with a curve fitting program using a 4-parameter logistic dose response equation.

Test [2] has as its target T1, human GPR119. As to the kind of experiment: cAMP HTRF functional assay (hGPR119 HEK-CRE beta-lactamase cells). Also noted: host or cells: HEK293-CRE beta-lactamase. The class given is cell-based. As to the method: GPR119 agonist activity was also determined with a cell-based assay utilizing an HTRF (Homogeneous Time-Resolved Fluorescence) cAMP detection kit (cAMP dynamic 2 Assay Kit; Cis Bio cat #62AM4PEC) that measures cAMP levels in the cell. The method is a competitive immunoassay between native cAMP produced by the cells and the cAMP labeled with the dye d2. The tracer binding is visualized by a Mab anti-cAMP labeled with Cryptate. The specific signal (i.e. energy transfer) is inversely proportional to the concentration of cAMP in either standard or sample.
Specifically, hGPR119 HEK-CRE beta-lactamase cells (Invitrogen 2.5×10^7/mL; the same cell line used in the beta-lactamase assay described above) are removed from cryopreservation and diluted in growth medium (Dulbecco's modified Eagle medium high glucose (DMEM; Gibco Cat # 11995-065), 1% charcoal dextran treated fetal bovine serum (CD serum; HyClone Cat # SH30068.03), 1×MEM Nonessential amino acids (Gibco Cat # 15630-080) and 25 mM HEPES pH 7.0 (Gibco Cat # 15630-080)). The cell concentration was adjusted to 1.5×10^5 cells/mL and 30 mLs of this suspension was added to a T-175 flask and incubated at 37 degrees Celsius in a humidified environment in 5% carbon dioxide. After 16 hours (overnight), the cells were removed from the T-175 flask (by rapping the side of the flask), centrifuged at 800×g and then re-suspended in assay medium (1×HBSS+CaCl2+MgCl2 (Gibco Cat # 14025-092) and 25 mM HEPES pH 7.0 (Gibco Cat # 15630-080)). The cell concentration was adjusted to 6.25×10^5 cells/mL with assay medium and 8 μl of this cell suspension (5000 cells) was added to each well of a white Greiner 384-well, low-volume assay plate (VWR cat #82051-458).
Varying concentrations of each compound to be tested were diluted in assay buffer containing 3-isobutyl-1-methylxanthin (IBMX; Sigma cat #15879) and added to the assay plate wells in a volume of 2 microL (final IBMX concentration was 400 microM and final DMSO concentration was 0.58%). Following 30 minutes incubation at room temperature, 5 microL of labeled d2 cAMP and 5 microL of anti-cAMP antibody (both diluted 1:20 in cell lysis buffer; as described in the manufacturers assay protocol) were added to each well of the assay plate. The plates were then incubated at room temperature and after 60 minutes, changes in the HTRF signal were read with an Envision 2104 multilabel plate reader using excitation of 330 nm and emissions of 615 and 665 nm. Raw data were converted to nM cAMP by interpolation from a cAMP standard curve (as described in the manufacturer's assay protocol) and EC50 determinations were made from an agonist-response curves analyzed with a curve fitting program using a 4-parameter logistic dose response equation.
Background: In TR-FRET formats the signal depends on donor and acceptor labels being close together.

The mark [3] stands for this setting: percent of maximal activity relative to standard GPR119 agonist at 10 micromolar.

Molecules are shown by their SMILES. pEC50: −log10 of the molar value. Values joined by “and” are separate entries in the source; they are usually repeats but may differ in a detail not shown here. Equal entries are not always repeated.

What is called pEC50 is the negative decadic logarithm of the EC50, by convention in mol/L. As to `Cc1c(O[C@@H]2CCN(C(=O)OC3(C)CC3)C[C@@H]2F)ncnc1N1CCc2ncccc21` [Example 18, 1-Methylcyclopropyl (3S,4R)-4-{[6-(2,3-dihydro-1H-pyrrolo[3,2-b]pyridin-1-yl)-5-methylpyrimidin-4-yl]oxy}-3-fluoropiperidine-1-carboxylate], the pEC50 on human GPR119 [1] (U2OS hGPR119 β-arrestin cells, 90 min, each line a separate determination, read-out: Human B-arrestin Functional EC50) was 8.59 and 7.72 and 8.31 and 7.69; at human GPR119 [2] (HTRF cAMP, 30 min, 400 microM IBMX, each line a separate determination), 7.73 and 7.74 and 7.80 and 7.90 and 7.84. On human GPR119 [1] (setting [3]), the Emax was 75.8%. The “Intrinsic Activity (Human B-arrestin)” value on human GPR119 [1] (setting [3]) is 73.7% and 81% and 78.9%. Also, the “Intrinsic Activity (Human cAMP)” value on human GPR119 [2] (setting [3]) is 71.2% and 49.2% and 54.5% and 61.7% and 57.7%.

Regarding `Cc1c(O[C@@H]2[C@@H]3COC[C@H]2CN(C(=O)OC2(C)CC2)C3)ncnc1N1CCc2ncccc21` [Example 28, 1-Methylcyclopropyl (9-syn)-9-{[6-(2,3-dihydro-1H-pyrrolo[3,2-b]pyridin-1-yl)-5-methylpyrimidin-4-yl]oxy}-3-oxa-7-azabicyclo[3.3.1]nonane-7-carboxylate], the Emax at human GPR119 [1] (setting [3]) worked out at 32.1%; at human GPR119 [2] (percent of maximal activity relative to standard GPR119 agonist at 10 micromolar, read-out: Intrinsic Activity (Human cAMP)) it was 41.9%. In addition, the “Intrinsic Activity (Human cAMP)” value on human GPR119 [2] (setting [3]) was 37% and 36%.
